Experimental data reported in patent US5814622A, “Compounds derived from boronic acid” (Adir et Compagnie, priority 1996, dated 1998).

Assays:
human thrombin = biological target: T1, human thrombin (Homo sapiens, UniProt P00734); assay: Inhibition of human thrombin (fibrinogen to fibrin); format: biochemical; conditions: human thrombin 0.7 nM, purified human fibrinogen, 20° C., pH 7.4
T1 construct: human thrombin (Sigma, specific activity 3230 UNIH/mg); purchased Sigma

[1] = tested on: human plasma (thrombin time); assay: Anticoagulant activity: thrombin time (TT) in human plasma; format: biochemical; conditions: 37° C., 2 min preincubation
Protocol: (§1) Anticoagulant activity, measurement of the thrombin time and the activated cephalin time in man In order to evaluate the anticoagulant activity of the compounds of the invention, the thrombin time (TT) and the activated cephalin time (ACT) were determined in samples of human plasma. An ST4 coagulometer (Diagnostica Stago, France) was used. […] The TT is determined with the Thrombin Prest reagent and the ACT with the Automat […] reagent. The inhibitor or the solvent (10 μl) is added to the plasma (90 μl), then the mixture is incubated for 2 minutes at 37° C. 100 μl of Thrombin […]) or of Automat […]) are added while starting the chronometer. […] The activity of an antagonist is evaluated by its capacity to prolong the TT and the ACT relative to the control.

[2] = tested on: plasma from the dogs (ACT); assay: ACT in dogs after oral administration; format: in vivo; conditions: dog; for Increase in ACT (number of times that the initial time is increased), 1 hour / Increase in ACT (number of times that the initial time is increased), 4 hours: 5 mg/kg
Protocol: (§2) Male or female dogs weighing 11-28 kg are treated orally with the products of the invention (5 mg/kg) or with the reference substance, DUP 714, at a concentration of 2.5 mg/kg. The coagulation times (TT, ACT) are determined in samples of plasma from the dogs 10 min before and 30 min, 1 hour, 2 hours, 4 hours and 6 hours after administration of the products. […] The number of platelets is also determined in each sample using a T450 counter (Coultronics).
(§3) The values show the number of times that the initial time is increased.

[3] = tested on: human plasma (activated cephalin time); assay: Anticoagulant activity: activated cephalin time (ACT) in human plasma; format: biochemical; conditions: 37° C., 2 min preincubation
Protocol: as §1

Plasmin = biological target: T2, Plasmin (Homo sapiens, UniProt P00747); assay: Inhibition of plasmin; format: biochemical; conditions: purified human plasmin 2 nM, substrate <Glu-Phe-Lys-pNA 0.05 mM, 20° C., pH 7.4
T2 construct: Products Thrombin Plasmin t-PA u-PA; purchased Stage [sic]

[4] = tested on: plasma from the dogs (TT); assay: TT in dogs after oral administration; format: in vivo; conditions: dog; for Increase in TT (number of times that the initial time is increased), 1 hour / Increase in TT (number of times that the initial time is increased), 4 hours: 5 mg/kg
Protocol: as §2, §3

human urokinase (u-PA) = biological target: T3, human urokinase (u-PA) (Homo sapiens, UniProt P00749); assay: Inhibition of urokinase (u-PA); format: biochemical; conditions: purified human u-PA 2 nM, substrate <Glu-Gly-Arg-pNA 0.56 mM, 20° C., pH 7.4
T3 construct: purchased Sigma

platelets = assay: Thrombopenic activity after oral administration to dogs; format: in vivo; conditions: dog
Protocol: Male or female dogs weighing 11-28 kg are treated orally with the products of the invention (5 mg/kg) or with the reference substance, DUP 714, at a concentration of 2.5 mg/kg. […] The number of platelets is also determined in each sample using a T450 counter (Coultronics).
Under the conditions of our experiments, the number of platelets before the treatment is about 300,000 platelets/μl; the TT is about 19 seconds and the ACT is about 18 seconds.

[5] = biological target: plasminogen tissue activator (t-PA) (Homo sapiens, UniProt P00750); assay: Inhibition of plasminogen tissue activator (t-PA); format: biochemical; conditions: t-PA 2 nM, substrate H-D-Ile-Pro-Arg-pNA 0.48 mM, 20° C., pH 7.4
thrombin [6] = conditions: prior knowledge; cited from earlier work
thrombin [7] = conditions: literature; cited from earlier work

T2 sequence (P00747 581-810 limits assumed): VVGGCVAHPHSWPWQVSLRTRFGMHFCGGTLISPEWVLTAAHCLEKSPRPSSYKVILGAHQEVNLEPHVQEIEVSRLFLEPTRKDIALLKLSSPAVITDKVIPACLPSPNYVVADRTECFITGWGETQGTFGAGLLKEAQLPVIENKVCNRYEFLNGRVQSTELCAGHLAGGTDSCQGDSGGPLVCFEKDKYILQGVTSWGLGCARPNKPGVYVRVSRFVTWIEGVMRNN
T2 sequence (P00747 97-580 partner limits assumed): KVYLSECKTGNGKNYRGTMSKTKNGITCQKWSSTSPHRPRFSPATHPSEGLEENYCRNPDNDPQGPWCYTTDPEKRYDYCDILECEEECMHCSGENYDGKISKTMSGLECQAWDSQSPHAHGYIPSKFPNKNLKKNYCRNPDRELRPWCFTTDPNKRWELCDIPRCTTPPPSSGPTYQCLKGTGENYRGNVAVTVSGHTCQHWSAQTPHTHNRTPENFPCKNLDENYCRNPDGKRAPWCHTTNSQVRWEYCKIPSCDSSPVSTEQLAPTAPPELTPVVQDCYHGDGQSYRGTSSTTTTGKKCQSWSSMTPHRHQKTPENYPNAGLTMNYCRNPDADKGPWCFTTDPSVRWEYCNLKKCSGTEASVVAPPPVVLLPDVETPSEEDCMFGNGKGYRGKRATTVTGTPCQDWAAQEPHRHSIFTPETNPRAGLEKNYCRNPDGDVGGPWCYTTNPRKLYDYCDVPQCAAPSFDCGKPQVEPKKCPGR
Chain of plasminogen tissue activator (t-PA) (P00750 23-562 limits assumed): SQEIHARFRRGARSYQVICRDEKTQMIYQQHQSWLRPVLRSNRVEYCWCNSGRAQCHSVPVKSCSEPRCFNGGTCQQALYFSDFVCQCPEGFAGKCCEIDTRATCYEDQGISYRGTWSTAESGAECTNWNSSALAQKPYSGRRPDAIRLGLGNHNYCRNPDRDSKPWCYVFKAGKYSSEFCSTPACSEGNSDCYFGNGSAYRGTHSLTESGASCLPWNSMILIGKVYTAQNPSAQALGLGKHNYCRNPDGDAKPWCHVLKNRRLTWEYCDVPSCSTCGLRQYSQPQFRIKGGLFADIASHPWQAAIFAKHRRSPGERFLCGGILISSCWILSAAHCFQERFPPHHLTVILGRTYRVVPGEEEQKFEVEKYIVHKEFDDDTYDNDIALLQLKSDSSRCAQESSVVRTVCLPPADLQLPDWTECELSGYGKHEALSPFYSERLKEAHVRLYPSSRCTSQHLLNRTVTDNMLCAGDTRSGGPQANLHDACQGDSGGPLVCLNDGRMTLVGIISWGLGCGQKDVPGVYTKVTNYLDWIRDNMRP

Row | Molecule | IC50 (human thrombin) | TT Ctt2 (concentration which multiplies the coagulation time by 2) [1] | Increase in ACT (number of times that the initial time is increased), 1 hour [2] | Increase in ACT (number of times that the initial time is increased), 4 hours [2] | ACT Ctt2 (concentration which multiplies the coagulation time by 2) [3] | IC50 (Plasmin) | Increase in TT (number of times that the initial time is increased), 1 hour [4] | Increase in TT (number of times that the initial time is increased), 4 hours [4] | IC50 (human urokinase (u-PA)) | Thrombopenias observed 1 hour after oral administration to dogs (platelets; 5 mg/kg, 1 hour) | IC50 [5] | activity via the oral route, in words (thrombin [6]) | increase of ACT in animals, in words [2] | increase of TT in animals, in words [4] | thrombin inhibition, in words (thrombin [7]) | effect on number of platelets, in words (platelets; 2.5 mg/kg) | Thrombopenias observed 1 hour after oral administration to dogs (platelets; 2.5 mg/kg, 1 hour) | fall in number of platelets (platelets; 2.5 mg/kg, 1 hour)
1 | COc1cccc(CCNC(=O)C2(C(=O)N[C@@H](CCCNC(=N)N)B(O)O)CCCC2)c1.O=S(=O)(O)c1ccccc1 [Ex. 94, 1-(R)-[1-(3-Methoxyphenethylaminocarbonyl)cyclopentanecarboxamido]-4-guanidinobutylboronic acid benzenesulfonate] | 0.0039 µM | 0.32 µM | 9 times | 4 times | 1.77 µM | 4.06 µM | 17 times | 21 times | 1 µM | 0% | 1.41 µM | – | – | – | – | – | – | –
2 | hirudin | – | – | – | – | – | – | – | – | – | – | – | not being active via the oral route | – | – | – | – | – | –
3 | Cl.N=C(N)NCCC[C@H](NC(=O)c1ccc(C23CCC(Cl)(CC2)CC3)cc1)B(O)O [Ex. 6, 1-(R)-[4-(4-Chlorobicyclo[2.2.2]oct-1-yl)benzoylamino]-4-guanidinobutylboronic acid hydrochloride] | 0.0097 µM | 0.75 µM | 4 times | 2 times | 3.13 µM | 2.04 µM | 30 times | 10 times | 30 µM | 0% | 0.29 µM | – | – | – | – | – | – | –
4 | Cl.N=C(N)NCCC[C@H](NC(=O)c1ccc(C23CCC(O)(CC2)CC3)cc1)B(O)O [Ex. 12, 1-(R)-[4-(4-Hydroxybicyclo[2.2.2]oct-1-yl)benzoylamino]-4-guanidinobutylboronic acid hydrochloride] | 0.0066 µM | 0.18 µM | > 30 times | > 30 times | 0.78 µM | 2.1 µM | 24 times | 19 times | 15.4 µM | 40% | 0.093 µM | – | – | – | – | – | – | –
5 | COc1ccc(CCNC(=O)C2(C(=O)N[C@@H](CCCNC(=N)N)B(O)O)CCCC2)cc1OC [Ex. 103, 1-(R)-[1-(3,4-Dimethoxyphenethylaminocarbonyl)cyclopentanecarboxamido]-4-guanidinoboronic acid benzensulfonate] | 0.004 µM | 0.29 µM | 6 times | 4 times | 1.67 µM | 3.28 µM | > 30 times | 24 times | 1.02 µM | 0% | 1.44 µM | – | – | – | – | – | – | –
6 | N=C(N)NCCC[C@H](NC(=O)C1(C(=O)NCc2ccccc2)CCCC1)B(O)O.O=S(=O)(O)c1ccccc1 [Ex. 22, 1-(R)-(1-Benzylaminocarbonylcyclopentanecarboxamido)-4-guanidinobutylboronic acid benzenesulfonate] | 0.0049 µM | 0.30 µM | 6 times | 2 times | 1.58 µM | 8.63 µM | 20 times | 8 times | 0.78 µM | 0% | 1.35 µM | – | – | – | – | – | – | –
7 | hirulog-1: Direct inhibitors of thrombin, currently in clinical development [reference compound] | – | – | – | – | – | – | – | – | – | – | – | not being active via the oral route | – | – | – | – | – | –
8 | Cl.N=C(N)NCCC[C@H](NC(=O)c1cccc(C23CCC(O)(CC2)CC3)c1)B(O)O [Ex. 69, 1-(R)-[3-(4-Hydroxybicyclo[2.2.2]oct-1yl)benzoylamino]-4-guanidinobutylboronic acid hydrochloride] | 0.0065 µM | 0.17 µM | 4 times | 3 times | 0.56 µM | 0.692 µM | 18 times | 15 times | > 33 µM | 0% | 0.709 µM | – | – | – | – | – | – | –
9 | COC12CCC(c3cccc(C(=O)N[C@@H](CCCNC(=N)N)B(O)O)c3)(CC1)CC2.Cl [Ex. 51, 1-(R)-[3-(4-Methoxybicyclo[2.2.2]oct-1-yl)benzoylamino]-4-guanidinobutylboronic acid hydrochloride] | 0.0027 µM | 0.15 µM | 3 times | 2 times | 0.84 µM | 0.531 µM | 22 times | 19 times | 5.61 µM | 0% | 1.54 µM | – | – | – | – | – | – | –
10 | N=C(N)NCCC[C@H](NC(=O)C1(C(=O)NCCc2ccccc2)CCCC1)B(O)O.O=S(=O)(O)c1ccccc1 [Ex. 83, 1-(R)-(1-Phenethylaminocarbonylcyclopentanecarboxamido)-4-guanidinobutylboronic acid benzenesulfonate] | 0.0024 µM | 0.13 µM | 7 times | 4 times | 0.56 µM | 6.88 µM | > 30 times | 18 times | 1.2 µM | 0% | 1.56 µM | – | – | – | – | – | – | –
11 | COC12CCC(c3ccc(C(=O)N[C@@H](CCCNC(=N)N)B(O)O)cc3)(CC1)CC2.Cl [Ex. 3, 1-(R)-[4-(4-Methoxybicyclo[2.2.2]oct-1-yl)benzoylamino]-4-guanidinobutylboronic acid hydrochloride] | 0.0093 µM | 0.32 µM | 19 times | 14 times | 1.25 µM | 1.96 µM | 16 times | 12 times | > 33 µM | 0% | 0.81 µM | – | – | – | – | – | – | –
12 | CC(=O)N[C@H](Cc1ccccc1)C(=O)N1CCC[C@H]1C(=O)N[C@@H](CCCNC(=N)N)B(O)O [DUP 714, Ac-(D)Phe-Pro-Arg boronic acid, reference compound] | – | – | – | – | – | – | – | – | – | – | – | – | appreciably increase | appreciably increase | thrombin inhibitor | lowers the number of platelets appreciably and reversibly | 55% | 55±14%
